Columns and labels:
[1] = patients treated at currently recommended doses; cited from earlier work
[2] = test system: HCV replicon I389luc-ubi-neo/NS3-3′/ET in ET (Huh-lucubineo-ET) cells; screening for HCV RNA dependent RNA polymerase; assay: Replicon Assay (luciferase, ET cell line Huh-lucubineo-ET); format: cell-based; settings: Hepatitis C virus; inhibition of replication relative to no compound control; test concentration of 10 μM according to the fitted equation; luciferase 48-72 hours
Procedure, shortened: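 Huh-derived ET cells stably carrying an I389luc-ubi-neo/NS3-3′/ET HCV replicon with a luciferase-ubiquitin-neomycin phosphotransferase fusion and adaptive NS3-5B mutations were cultured in DMEM with 10% fetal calf serum and 250 μg/mL G418. Cells were seeded at 0.5-1.0×10^4 cells/well in 96 well plates and given compound after 24 hrs. Luciferase was read 48-72 hours later with Bright-Glo reagents, and replication inhibition was expressed relative to untreated controls.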

| Structure (SMILES) | patients with significant hemolysis [1] | inhibition at 10 µM [2] |
| --- | --- | --- |
| NC(=O)c1ncn([C@@H]2O[C@H](CO)[C@@H](O)[C@H]2O)n1 [Ribavirin] | 10-20% |  |
| O=C(Nc1nc(-c2ccc3c(c2)OCO3)cs1)[C@@H]1CCCN1C(=O)OCc1ccccc1 [Compound 5002, 2-(4-Benzo[1,3]dioxol-5-yl-thiazol-2-ylcarbamoyl)-pyrrolidine-1-carboxylic acid benzyl ester] |  | 94.7% |
| O=C(Nc1cccc(-c2cnc(NC(=O)[C@@H]3CCCN3C(=O)OCc3ccccc3)s2)c1)C1CC1 [Compound 5108, 2-{5-[3-(Cyclopropanecarbonyl-amino)-phenyl]-thiazol-2-ylcarbamoyl}-pyrrolidine-1-carboxylic acid benzyl ester] |  | 98.9% |
| O=C(O)c1ccc(-c2csc(NC(=O)[C@@H]3CCCN3C(=O)OCc3ccccc3)n2)cc1 [Compound 5106, 2-[4-(4-Carboxy-phenyl)-thiazol-2-ylcarbamoyl]-pyrrolidine-1-carboxylic acid benzyl ester] |  | 46.3% |
| O=C(NC1CC1)c1ccc(-c2cnc(NC(=O)[C@@H]3CCCN3C(=O)OCc3ccccc3)s2)cc1 [Compound 5352, 2-[5-(4-Cyclopropylcarbamoyl-phenyl)-thiazol-2-ylcarbamoyl]-pyrrolidine-1-carboxylic acid benzyl ester] |  | 7.07% |

From patent US7595398B2, “N-(5-membered aromatic ring)-amido anti-viral compounds” (SmithKline Beecham Corporation, priority 2005, dated 2009)
